Data published in patent publication US7012098B2, “Inhibitors of inducible nitric oxide synthase for chemoprevention and treatment of cancers” (Pharmacia Corporation, priority 2001, dated 2006).
Structures can show the parent of a compound that is named as a salt.

Key:
AOM-induced colonic ACF = assay: Chemopreventive effects in rats with azoxymethane-induced aberrant crypt foci; format: in vivo, male F344 rats; conditions: for Foci containing 1 Crypt / Foci containing 2 Crypt / Foci containing 3 Crypt / Foci containing ≧4 Crypts / Total ACF incidence: AOM-treated male F344 rats, Mean ± SEM
From the text: In Vivo Assay of Chemopreventive Effects of Therapeutic Compounds in Rats with Azoxymethane-induced Aberrant Crypt Foci
Azoxymethane (AOM) (CAS:25843-45-2) was purchased from Ash Stevens (Detroit, Mich.). iNOS and COX-2 selective inhibitors were provided by Pharmacia, (St. Louis, […].). Sulindac, a non-selective inhibitor of COX-isoforms and a known inhibitor of colon carcinogenesis, was supplied by the Chemoprevention Branch of the National Cancer Institute (Bethesda, Md.). Weanling male F344 rats were purchased from Charles River Breeding Laboratories (Kingston, N.Y.). All ingredients of the semipurified diet were obtained from Dyets Inc., (Bethlehem, Pa.) and were stored at 4° C. until the experimental diets were prepared. The rats were held in quarantine for 1 week and had access to modified AIN-76A semipurified control diet (Reddy et al., Cancer Res. 50: 2562-2568, 1990, which is herein incorporated by reference.). They were randomly distributed into various dietary groups and were transferred to an animal holding room where they were housed, three rats to a plastic cage, under controlled conditions of a 12-h light/12-h dark cycle, 50% relative humidity and 21° C. room temperature. Experimental diets were prepared by mixing chemopreventive agents with modified AIN-76A control diet.
To quantify aberrant crypt foci, after a minimum of 24 h in buffered formalin, the colons were cut into 2-cm segments starting at the anus; for the next 5-10 min they were placed in a Petri dish containing 0.2% methylene blue in Krebs Ringer solution. They were then placed, mucosal side up, on a microscope slide and observed through a light microscope. Aberrant crypt foci were recorded according to standard procedures that are being used routinely in our laboratory (Rao et al., Carcinogenesis 21: 617-21, 2000; Rao et al., Cancer Res. 53:4182-88, 1993, which are herein incorporated by reference.). […] The parameters used to assess the aberrant crypts were their occurrence and multiplicity. Crypt multiplicity was determined as the number of crypts in each focus and categorized as containing up to 3, or 4 or more aberrant crypts/focus.

COX-2 = biological target: T1, COX-2 (Rattus norvegicus, UniProt P35355); assay: Colonic mucosal COX-2 activity after dietary treatment; format: in vivo, male F344 rats; conditions: 100 ppm in diet; AOM-treated rats, colonic mucosa; Mean ± SEM
T1 sequence (P35355 18-604): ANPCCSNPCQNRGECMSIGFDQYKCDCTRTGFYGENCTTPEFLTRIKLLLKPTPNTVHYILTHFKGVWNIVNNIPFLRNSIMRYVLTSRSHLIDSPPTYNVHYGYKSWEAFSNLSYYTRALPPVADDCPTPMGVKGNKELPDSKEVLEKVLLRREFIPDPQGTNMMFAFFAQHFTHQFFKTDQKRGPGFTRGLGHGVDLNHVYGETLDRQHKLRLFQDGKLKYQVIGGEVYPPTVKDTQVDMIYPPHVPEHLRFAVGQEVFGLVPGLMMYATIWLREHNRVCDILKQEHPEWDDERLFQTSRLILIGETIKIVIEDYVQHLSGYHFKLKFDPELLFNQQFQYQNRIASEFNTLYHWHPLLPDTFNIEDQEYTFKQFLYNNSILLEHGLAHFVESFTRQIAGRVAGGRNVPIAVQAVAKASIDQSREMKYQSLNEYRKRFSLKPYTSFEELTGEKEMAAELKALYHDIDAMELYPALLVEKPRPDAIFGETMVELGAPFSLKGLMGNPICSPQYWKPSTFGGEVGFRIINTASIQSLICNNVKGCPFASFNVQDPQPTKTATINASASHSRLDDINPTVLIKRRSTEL
Procedure: For determining COX-2 activity, proteins were preincubated with 50 μM of aspirin to block the activity of COX-1. After incubation at 37° C. for 15 min, the reaction was terminated by adding 40 μl of 0.2 M HCl. The COX-mediated metabolites of arachidonic acid were extracted with ethyl acetate (3×0.5 ml). The combined extracts were evaporated to dryness under N2, redissolved in chloroform, and subjected to thin layer chromatography on precoated TLC plastic plates (silica G 60, 20×20 cm, layer thickness 150 μm). […] The metabolites of ^14C-AA corresponding to PGE2, PGF2α, PGD2, 6-Keto PGF1α, and TXB2 were detected by their comigration (Rf-values) with authentic standards. The area of each metabolite was determined in a Bioscan System 200 image scanning counter (Bioscan Inc., Washington, D.C.) equipped with β-detector.

NOS = assay: Colonic mucosal NOS activity after dietary treatment; format: in vivo, male F344 rats; conditions: 100 ppm in diet; AOM-treated rats, colonic mucosa; Mean ± SEM
Procedure: In Vivo Assay of Modulation of Colonic Mucosal Activities of NOS and COX isoforms by iNOS and COX-2 Inhibitors
NOS and iNOS activities were determined in colonic samples as prepared and described above. Conversion of L-arginine to L-citrulline was measured by a modification of an earlier described method (Rao et al, Carcinogenesis 21, supra; Ambs et al., Cancer Res. 58:334-41, 1998, which is herein incorporated by reference). The assay was carried out by adding 100 μg sample protein to 150 μl of assay buffer [50 mM HEPES, 1 mM DTT, 1 mM MgCl2, 5 mg/L pepstatin A, 0.1 mM PMSF, and 3 mg/L aprotinin, pH 7.4] containing 70 μM arginine, 250,000 dpm L-[^3H]-arginine, 2 mM NADPH, 5μM tetrahydro biopterin, 5 μM flavin adenine dinucleotide, and 0.5 mM CaCi2 to measure total NOS activity, or 1 mM EGTA (without calcium) to determine Ca+^2-independent iNOS activity. After 30 min at 37° C., the reaction was stopped with 100 μl of 1M trichloroacetic acid. Then the samples were adjusted to pH 4.6 by adding 500 μl of 20 mM HEPES and loaded on to Dowex AG 50W-X8 resin columns. L-[^3H]-citrulline was eluted and separated on TLC. Radioactivity was counted by a BioScan Radiomatic detector. Results are expressed as pmol L-[^3H]-citrulline released/mg protein/min.

in vivo = conditions: male, F344, rat, plasma, oral

CC(=N)NCCCC[C@H](N)C(=O)Nc1nnn[nH]1 [compound XI, 2S-amino-6-[(1-iminoethyl)amino]-N-(1H-tetrazol-5-yl)hexanamide, hydrate, dihydrochloride]
Foci containing 1 Crypt (AOM-induced colonic ACF; 10 ppm in diet): 28.2 ± 1.8
Foci containing 2 Crypt (AOM-induced colonic ACF; 10 ppm in diet): 31.7 ± 2.7
Foci containing 3 Crypt (AOM-induced colonic ACF; 10 ppm in diet): 29.3 ± 2.3
Foci containing ≧4 Crypts (AOM-induced colonic ACF; 10 ppm in diet): 25.6 ± 1.8
Total ACF incidence (AOM-induced colonic ACF; 10 ppm in diet): 115 ± 4.8
Foci containing 1 Crypt (AOM-induced colonic ACF; 30 ppm in diet): 28.7 ± 2.9
Foci containing 2 Crypt (AOM-induced colonic ACF; 30 ppm in diet): 32.6 ± 1.8
Foci containing 3 Crypt (AOM-induced colonic ACF; 30 ppm in diet): 24.8 ± 1.7
Foci containing ≧4 Crypts (AOM-induced colonic ACF; 30 ppm in diet): 22 ± 2.7
Total ACF incidence (AOM-induced colonic ACF; 30 ppm in diet): 108 ± 5.5
Foci containing 1 Crypt (AOM-induced colonic ACF; 100 ppm in diet): 28.6 ± 2.2
Foci containing 2 Crypt (AOM-induced colonic ACF; 100 ppm in diet): 33.6 ± 2.1
Foci containing 3 Crypt (AOM-induced colonic ACF; 100 ppm in diet): 17.7 ± 1.1
Foci containing ≧4 Crypts (AOM-induced colonic ACF; 100 ppm in diet): 13.9 ± 1.1
Total ACF incidence (AOM-induced colonic ACF; 100 ppm in diet): 93.8 ± 4.2
effect on AOM-induced total colonic ACF and multicrypt clusters of 4 or more crypts (AOM-induced colonic ACF; 100 ppm, compared to control diet): suppressed
COX-Activity, COX-2 (COX-2): 1.8 ± 0.3 pmoles [^14C]-AA metabolized/m
NOS Activity, NOS (NOS): 9.8 ± 1.5 pmoles [^3H]-citrulline/mg pro
concentration at 1 week on diet (in vivo; 10 ppm in diet): 461 ng/mL
concentration at 5 weeks on diet (in vivo; 10 ppm in diet): 341 ng/mL
concentration at 9 weeks on diet (in vivo; 10 ppm in diet): 254 ng/mL
concentration at 1 week on diet (in vivo; 20 ppm in diet): 1320 ± 71 ng/mL
concentration at 5 weeks on diet (in vivo; 20 ppm in diet): 821 ± 32 ng/mL
concentration at 9 weeks on diet (in vivo; 20 ppm in diet): 742 ± 7 ng/mL
concentration at 1 week on diet (in vivo; 100 ppm in diet): 4310 ng/mL
concentration at 5 weeks on diet (in vivo; 100 ppm in diet): 2810 ng/mL
concentration at 9 weeks on diet (in vivo; 100 ppm in diet): 2640 ng/mL
